# Data published in ChEMBL document CHEMBL1157539, “Thousands of chemical starting points for antimalarial lead identification” (Nature, 2010).
# System: Plasmodium falciparum
# Experiment: GSK_TCMDC: Inhibition of Plasmodium falciparum 3D7 in whole erythrocytes, using parasite LDH activity as an index of growth.
# Type: functional, organism-based
# Conditions: Plasmodium falciparum, 3D7
row,Compound,XC50 [µM]
1,Nc1ncc(-c2ccsc2)c2ccc(-c3ccc4cn[nH]c4c3)cc12,0.814
2,Nc1cc(-c2cccc(Cl)c2)nn1-c1ccnc2cc(Cl)ccc12,0.753
3,CC(C)C[C@H](Nc1ccc(C#N)c2ccccc12)C(=O)NC(C)(C)C12CC3CC(CC(C3)C1)C2,0.916
4,C#CC[C@@H](NC(N)=O)C(=O)O,0.189
5,Cc1ccc2c(c1)c(C1CCN(C(=O)c3ccc([N+](=O)[O-])o3)CC1)cn2C,0.746
6,N=C(N)NC(=O)Nc1cc(Br)c(Cl)c(C(F)(F)F)c1,0.758
7,O=C(/C=C/c1ccc(Cl)c(Cl)c1)NC1CCC(N2CCC(c3c[nH]c4ccc(O)cc34)CC2)CC1 (stereo not drawn),0.921
8,COc1cc2nc(NCCc3ccccc3)nc(NCCCc3ccccc3)c2cc1OC,0.158
9,Cc1nc(C)c(-c2ccc(Oc3ccc(OC(F)(F)F)cc3)cc2)c(O)c1I,0.128
10,O=C(NCCc1ccccc1)c1cc(-c2cccnc2)cnc1NCC1CC1,0.847
11,O=S(=O)(Nc1ccc2nccc(N3CCNCC3)c2c1)c1ccc2c(Cl)cccc2c1,0.573
12,O=C(NC1CCN(c2ccnc3ccccc23)C1)c1ccc(OC(F)(F)F)cc1 (stereo not drawn),1.15
13,Cc1cc(N(C)C)nc(Nc2ccc(NC(=O)c3ccc(Br)o3)cc2)n1,1.05
14,CN1CCN(CCCN(Cc2csc(-c3ccc(CNCc4ccccc4)cc3)n2)S(=O)(=O)c2ccc(F)cc2)CC1,0.858
15,CC(C)CN(Cc1c(O)ccc2[nH]c(-c3ccc(F)cc3F)nc12)CC(C)C,0.802
16,Cc1ccc(C(NC(=O)c2ccccc2)c2ccc3cccnc3c2O)cc1 (stereo not drawn),0.961
17,CCCn1c(O)nnc1SCC(=O)Nc1cc(Cl)ccc1Cl,0.997
18,Cn1nccc1C(=O)NCCNCc1ccc(-c2cccc(-c3nc4cc(C(F)(F)F)ccc4[nH]3)c2)cc1,0.117
19,CCc1ccc(CN(Cc2ccc(C)cc2)Cc2ccc(NC(C)=O)cc2)cc1,0.962
20,Cn1cc(C2CCN(CCCCCNC(=O)/C=C/c3ccc(Cl)c(Cl)c3)CC2)c2cc(O)ccc21,0.943
21,CC(C)(C)c1ccc(C(=O)Nc2ccc(NC(=O)c3ccc([N+](=O)[O-])o3)cc2)cc1,0.844
22,CN1CCC(Oc2cc(CN3CC[C@H](NC(=O)c4ccc(Cl)c(Cl)c4)C3)ccc2I)C1 (stereo partly drawn),0.843
23,CCN(CC)c1ccc(-c2nc3cc(Cl)cnc3[nH]2)cc1,1.13
24,O=C(Nc1cccc(C(F)(F)F)c1)NC1CCN(c2ccnc3ccccc23)C1 (stereo not drawn),0.289
25,COc1ccc(NC(=O)Nc2ccc(Nc3nc(C)cc(N(C)C)n3)cc2)cc1,0.454

row,Compound,XC50 [µM]
1,Cc1cc(N[C@@H](CC(C)C)C(=O)NCCc2ccccc2)nc(NCC2CCCCC2)n1,0.904
2,c1ccc2[nH]c(-c3ccc(-c4ccc(CN5CCN(CCN6CCOCC6)CC5)cc4)cc3)nc2c1,0.158
3,COc1ccc(CN(C)CCCc2ccc(NC(=O)c3cccc4c(O)c5ccccc5nc34)cc2)cc1OC,1.37
4,Cc1cc(N[C@@H](Cc2ccccc2)C(=O)NC2CCCC2)nc(NCCOc2ccccc2)n1,1.11
5,O=C(/C=C/c1cccc(Cl)c1)N1CCC(C(O)CN2CCC3(CC2)CN(C(=O)/C=C/c2cccc(Cl)c2)c2ccccc23)CC1 (stereo not drawn),0.892
6,Fc1cccc2sc(Nc3nc(-c4ccccn4)cs3)nc12,0.906
7,Clc1cnc2ccc3c(c2c1CCN1CCC(NCc2cc4c(cn2)OCCO4)CC1)OCCO3,0.718
8,CCCC1N=C(N)N=C(N)N1c1cccc([N+](=O)[O-])c1 (stereo not drawn),0.76
9,Cc1[nH]c(C)c(-c2ccc(-c3ccccc3F)nc2)c(=O)c1Br,0.401
10,Cc1ccc(NC(=O)c2cccc(CN3CCCN(CC4CCCCC4)CC3)c2)cc1F,0.596
11,NS(=O)(=O)c1ccc(CNC(=O)c2cnc3c(O)cccc3c2Nc2cccc(NC(=O)c3ccc(Cl)c(Cl)c3)c2)cc1,1.72
12,Fc1ccc2[nH]cc(CCN3CCC(CNCc4ccccc4)CC3)c2c1,0.033
13,Oc1ccc(Cl)cc1-c1cc(C(F)(F)F)nc(-c2ccccc2)n1,0.753
14,CC(c1cccc(S(=O)(=O)NCc2ccc(Cl)cc2Cl)c1)N1CCC(N2CCCCC2)CC1 (stereo not drawn),0.747
15,COc1cc2c(cc1COc1ccccc1)CCN1Cc3cc(OC)c(OC)cc3CC21 (stereo not drawn),0.15
16,CS(=O)(=O)Nc1ccc2[nH]cc(C3CCN(CC(O)C4CCN(C(=O)/C=C/c5ccc(Cl)c(Cl)c5)CC4)CC3)c2c1 (stereo not drawn),1.76
17,COCCNCc1ncsc1-c1ccc2c(Nc3cc(O)ccc3C)ccnc2c1,0.705
18,O=C(Nc1ccc2c(c1)CCN2C1CCN(Cc2ccc(F)cc2Cl)C1)c1ccco1 (stereo not drawn),0.47
19,Clc1ccccc1/C=C/c1cncnc1Nc1ccc2[nH]c(Cc3ccccc3)nc2c1,0.915
20,CN(C)CCOc1ccnc2ccc(NC(=O)Cc3ccc(-c4ccncc4)c4ccccc34)cc12,0.277
21,CCOc1cc(CC)ccc1C1CCN(CCN2CCC(NC(=O)c3ccc(-c4ccc(C(C)=O)cc4)cc3)CC2)CC1,0.226
22,CC1Cc2ccccc2N1CC(=O)Nc1cc(C(F)(F)F)ccc1-n1cncn1 (stereo not drawn),0.321
23,CC(C)CNCc1ccc(-c2ccc(CN(C(=O)NC3CCCCC3)C3CCN(Cc4ccccc4)CC3)cc2)cc1,0.785
24,c1ccn2c(Sc3ncnc4sccc34)ncc2c1,0.663
25,O=C(Nc1ccc(C(F)(F)F)cc1)c1ccc(S(=O)(=O)NCC2CCCN(CC3CCCCC3)C2)cc1 (stereo not drawn),0.152

row,Compound,XC50 [µM]
1,COc1ccc(C)cc1NC(=O)CSc1nc2cccnc2n1C1CCCCC1,0.544
2,Cc1cc(Nc2cccc(C#N)c2)nc(Nc2ccccc2C)n1,0.861
3,CCCCCCCNCCNc1cc(C)nc2ccccc12,0.386
4,Cc1cc(Cc2ccc(S(=O)(=O)c3cc4c(cc3O)CCN(C)CC4)cc2)ccc1Cl,0.911
5,COc1cc(NC2=NS(=O)(=O)c3cc(Cl)ccc3N2C)cc(OC)c1OC,0.42
6,Cc1ccc(NC(=O)NC2CCN(CCCCCNC(=O)C3CC3c3ccc(Cl)c(Cl)c3)CC2)cc1 (stereo not drawn),0.54
7,COCc1nc(-c2ccccc2)nc(N2CCN(C(=O)NC(C)C)CC2)c1Cc1ccccc1F,1
8,NC1CCCN(Cc2cccc(-c3ccc(-c4nc5cc(C(F)(F)F)ccc5[nH]4)cc3)c2)C1 (stereo not drawn),0.518
9,COc1ccc(CNC2Cc3ccccc3C2)cc1-c1ccc(OC)c(S(=O)(=O)NCCN2CCCC2)c1,0.773
10,CC(C)NCc1ccc(-c2ccc(-c3nc4cc(C(F)(F)F)ccc4[nH]3)cc2)cc1,0.266
11,Cc1cnc(C(=O)Nc2cccc(-c3ccc(-c4nc5cc(F)ccc5[nH]4)cc3)c2)cn1,0.637
12,C[C@@H](C(=O)N1CCOCC1)N1CC[C@H](NS(=O)(=O)c2ccc3ccnc(N)c3c2)C1=O,1.5
13,CS(=O)(=O)NCCCNCc1ccc(-c2cccc(-c3nc4cc(C(F)(F)F)ccc4[nH]3)c2)cc1,0.854
14,CCc1ccccc1N=C1c2c(cccc2[N+](=O)[O-])C(=O)C1C(C)=O (stereo not drawn),0.0909
15,CC(C)CNCc1cccc(-c2ccccc2CN(C(=O)NCCc2ccccc2)C2CCN(Cc3ccccc3)CC2)c1,1.17
16,Cc1ccc(Nc2nc3cc(N(C)c4ccnc(Nc5cccc(CCS(C)(=O)=O)c5)n4)ccc3n2C)cc1,0.339
17,CC(C)(C)c1cc2cc(Nc3ccnc4cc(-c5nccs5)ccc34)ccc2[nH]1,0.441
18,Cc1ccc(S(=O)(=O)NC2CCN(c3ccnc4cc(Cl)ccc34)C2)cc1 (stereo not drawn),0.621
19,COc1cc2nc(-c3ccccc3)nc(N3CCN(CC(=O)N4CCCC4)CC3)c2cc1OC,1.13
20,NCCc1cccc(-c2cnc3[nH]cc(-c4ccc(C(=O)O)cc4)c3c2)c1,0.397
21,CC(=O)N(C)c1cccc(C(=O)Nc2cccc(-c3cccc(-c4nc5cc(C(F)(F)F)ccc5[nH]4)c3)c2)c1,0.236
22,O=C(Nc1ccc(C(F)(F)F)cc1)c1ccc(S(=O)(=O)NC2CCN(CC3CCCCC3)C2)cc1 (stereo not drawn),0.723
23,O=[N+]([O-])c1ccc2nc(Nc3ccc(Cl)c(Cl)c3)c(Nc3ccc(Cl)c(Cl)c3)nc2c1,0.793
24,COc1ccc(CCN(C)CCOc2ccc(NC(=O)COc3ccc4sc5ccccc5c(=O)c4c3)cc2)cc1OC,1.1
25,CC(C)CNCc1cccc(-c2cccc(CN(C(=O)NC3CCCCC3)C3CCN(Cc4ccccc4)CC3)c2)c1,0.821

row,Compound,XC50 [µM]
1,Oc1ccc(-c2cc(COc3ccccc3C(F)(F)F)c(C3=CCNCC3)cc2COc2ccccc2C(F)(F)F)cc1,0.775
2,CCc1ccccc1N1CCN(CCCCNC(=O)c2ccc(NC(=O)c3ccc(Cl)cc3)cc2)CC1,0.961
3,CCC(C)OC(=O)C1=C(C)NC2=C(C(=O)CC(c3ccc(OC)c(OC)c3)C2)C1c1ccc(C)o1 (stereo not drawn),0.899
4,NOCCCOc1ccc(Cl)cc1,0.574
5,OC1(C(F)(F)F)CC(c2ccccc2)=NN1c1nncc(-c2ccccc2)n1 (stereo not drawn),0.735
6,Cc1cccc(NC(=O)Nc2cccc(-c3ccc(-c4nc5cc(C(F)(F)F)ccc5[nH]4)cc3)c2)c1,0.905
7,Cc1ccc2c(=NN=Cc3cccc(F)c3)cc(C)[nH]c2c1,0.857
8,Cc1noc(C)c1-c1cccc(C(=O)NC2CCN(CCNC(=O)C(c3ccccc3)c3ccccc3)CC2)c1,1.22
9,O=C(Cc1c[nH]cn1)Nc1cccc(-c2ccc(-c3nc4cc(C(F)(F)F)ccc4[nH]3)s2)c1,0.773
10,COc1cc(Cc2cnc(N)nc2N)cc(OCCCOc2ccccc2)c1OC,1.08
11,NC(=O)c1ccc(-c2ccc3ccnc(N)c3c2)cc1,0.419
12,CN1C2CCC1c1cc(NC(=O)c3cc(-c4ccc(Cl)cc4)cs3)ccc12 (stereo not drawn),1.3
13,CCCCNCc1ccc(-c2nc(CN(CCCN3CCN(C)CC3)C(=O)Nc3cccc(Cl)c3)cs2)cc1,0.967
14,CCOc1ccc(-c2nonc2NC(=O)c2cccc(Cl)c2)cc1OCC,0.147
15,O=C(Nc1ccc(OC2CCN(Cc3ccc(F)cc3)C2)c(Cl)c1)c1ccccc1 (stereo not drawn),0.787
16,O=C(NCC1CCN(Cc2cccc(F)c2)C1)c1cc(-c2cccc(C(F)(F)F)c2)cs1 (stereo not drawn),0.992
17,Cn1cncc1C(=O)Nc1cccc(-c2ccc(-c3nc4ccccc4[nH]3)cc2)c1,0.854
18,Nc1nc(N)c2cc(NC(=O)c3ccc(Cl)c(Cl)c3)ccc2n1,0.146
19,CS(=O)(=O)N(c1ccccc1)c1cc(C(=O)N[C@@H](Cc2ccccc2)[C@H](O)CNC2CC2)cc(N2CCCC2=O)c1,0.305
20,CC(C)(C)Nc1cc(C(=O)N[C@@H](Cc2ccccc2)[C@H](O)CNC2CCOCC2)cc(N2CCCCS2(=O)=O)c1,0.15
21,CCCCN(CCCC)Cc1cc(N(C)c2ccc([N+](=O)[O-])cn2)ccc1O,0.544
22,COc1ccc(C)c(Nc2ccnc(Nc3cccc(-c4nc5ccccc5[nH]4)c3)n2)c1,0.716
23,COc1cc(C2NCC3(CCOCC3)c3cc4c(cc32)OCCO4)cc(OC)c1OC (stereo not drawn),0.169
